Test [1] deals with T1, human Gcg receptor (Homo sapiens, UniProt P47871).
T1 construct: expressed in transfected cells; crude membranes
The test is described as follows: [125I]-Glucagon binding (SPA), human Gcg receptor. Particulars: read-out: hGLcgR Ki, nM (SEM, n). The gist of the method:
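Scintillation counts are taken after membranes and WGA beads incubate and settle for 12 hours at room temperature. Buffer is 25 mM HEPES, pH 7.4, with CaCl2, MgCl2, bacitracin and Tween-20. Ki values, from four-parameter IC50 fits, are geometric means over independent days.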

In test [2] the target is T2, human GIP receptor (Homo sapiens, UniProt P48546).
T2 construct: expressed in transfected cells; crude membranes
T2 sequence (P48546 22-466): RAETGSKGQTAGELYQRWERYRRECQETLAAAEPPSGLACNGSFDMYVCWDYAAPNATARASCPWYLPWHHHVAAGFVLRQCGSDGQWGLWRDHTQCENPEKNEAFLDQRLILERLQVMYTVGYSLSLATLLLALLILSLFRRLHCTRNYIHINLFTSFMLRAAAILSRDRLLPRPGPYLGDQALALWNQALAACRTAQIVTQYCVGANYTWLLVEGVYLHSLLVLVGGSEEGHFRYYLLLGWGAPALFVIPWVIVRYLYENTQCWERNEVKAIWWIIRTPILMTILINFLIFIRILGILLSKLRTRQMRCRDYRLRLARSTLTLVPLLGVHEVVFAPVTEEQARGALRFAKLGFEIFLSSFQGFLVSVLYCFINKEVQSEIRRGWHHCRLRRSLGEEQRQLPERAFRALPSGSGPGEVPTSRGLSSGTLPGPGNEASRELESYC
Description: [125I]-GIP binding (SPA), human GIP receptor. Particulars: read-out: hGIPR Ki, nM (SEM, n).

Test [3] has as its target human GLP-1 receptor (GLP-1R) (Homo sapiens, UniProt P43220). Description: cAMP pharmacological functional assay in presence of casein, hGLP-1R. Type of test: cell-based. Conditions: HEK293 cells expressing hGLP-1R, 0.1% Casein, geometric mean; read-out: hGLP1R cAMP Rel EC50 nM (SEM, n).
Test [4] deals with T3, gastric inhibitory peptide receptor (GIPR) (Homo sapiens, UniProt P48546).
T3 sequence (P48546 22-466): T2 sequence (P48546 22-466)
Description: cAMP pharmacological functional assay in presence of casein, hGIPR. The test is classed as cell-based. Particulars: HEK293 cells expressing hGIPR, 0.1% Casein, geometric mean; read-out: hGIPR cAMP Rel EC50 nM (SEM, n).

The target of test [5] is human GLP-1R (Homo sapiens, UniProt P43220). Description: [125I]-GLP-1 binding (SPA), human GLP-1 receptor. Particulars: read-out: hGLP1R Ki, (nM) (SEM, n). Set-up: expressed in transfected cells; crude membranes. The gist of the method: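 Membranes: hypotonic lysis (50 mM Tris HCl, pH 7.5, protease inhibitors), Potter-Elvehjem homogenization, high-speed pellet (35000×g 1 h or 25000×g 30 min, 4° C.). Buffer: 25 mM HEPES pH 7.4, 2.5 mM CaCl2, 1 mM MgCl2. Four-parameter IC50 fit; Ki as geometric mean ± SEM.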

These results are taken from patent publication US12252524B2, “GIP/GLP1 co-agonist compounds” (Eli Lilly and Company, priority 2018, dated 2025).

Numbered stars: 1 amine (or outer) side, 2 acyl side, 3 side chain; on linkers, the order of the positions; unused ones are H or OH. Square brackets hold non-standard residues; d marks the D form. Side chains are listed from the residue outwards. Peptide text beside a SMILES is read from it. * marks the point of attachment. C20 diacid = O=C(O)CCCCCCCCCCCCCCCCCCC(=O)*; γGlu = O=C(O)[C@H](CCC(=O)[*:2])N[*:1]; αMeF = C[C@](N)(Cc1ccccc1)C(=O)O; αMeL = CC(C)C[C@](C)(N)C(=O)O; AEEA = NCCOCCOCC(=O)O; Aib = CC(C)(N)C(=O)O

T1 sequence (P47871 26-477): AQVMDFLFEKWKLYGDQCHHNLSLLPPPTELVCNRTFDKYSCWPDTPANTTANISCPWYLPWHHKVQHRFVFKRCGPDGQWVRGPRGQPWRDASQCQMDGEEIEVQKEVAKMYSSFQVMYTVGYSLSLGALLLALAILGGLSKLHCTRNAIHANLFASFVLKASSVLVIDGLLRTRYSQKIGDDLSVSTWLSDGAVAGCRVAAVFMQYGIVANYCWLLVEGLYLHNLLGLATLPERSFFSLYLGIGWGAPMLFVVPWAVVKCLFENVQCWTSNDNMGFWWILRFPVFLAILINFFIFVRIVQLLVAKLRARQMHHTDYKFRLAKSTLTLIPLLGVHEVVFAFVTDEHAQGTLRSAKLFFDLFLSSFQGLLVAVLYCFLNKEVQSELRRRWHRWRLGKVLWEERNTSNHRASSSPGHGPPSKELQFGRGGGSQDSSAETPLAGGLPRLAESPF
Sequence of human GLP-1 receptor (GLP-1R) (P43220 24-463): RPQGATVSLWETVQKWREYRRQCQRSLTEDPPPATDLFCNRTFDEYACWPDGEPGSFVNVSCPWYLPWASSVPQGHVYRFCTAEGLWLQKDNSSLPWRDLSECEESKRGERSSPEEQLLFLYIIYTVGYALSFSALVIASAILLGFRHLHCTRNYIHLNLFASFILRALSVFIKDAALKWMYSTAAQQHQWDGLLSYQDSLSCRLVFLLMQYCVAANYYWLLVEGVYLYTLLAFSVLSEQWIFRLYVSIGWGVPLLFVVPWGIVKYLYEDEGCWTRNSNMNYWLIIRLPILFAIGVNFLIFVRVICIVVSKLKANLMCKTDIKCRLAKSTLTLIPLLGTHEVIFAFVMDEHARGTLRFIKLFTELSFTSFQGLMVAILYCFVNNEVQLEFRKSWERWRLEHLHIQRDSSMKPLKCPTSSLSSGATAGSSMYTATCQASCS
Sequence of human GLP-1R (P43220 24-463): as above

As to `CC[C@H](C)[C@H](NC(=O)[C@H](CC(C)C)NC(=O)[C@H](Cc1ccc(O)cc1)NC(=O)[C@H](CCC(=O)O)NC(=O)[C@@H](NC(=O)[C@H](Cc1ccccc1)NC(=O)[C@H](C)NC(=O)C(C)(C)NC(=O)[C@H](CCC(N)=O)NC(=O)[C@H](C)NC(=O)[C@H](CCCCNC(=O)COCCOCCNC(=O)COCCOCCNC(=O)CC[C@H](NC(=O)CCCCCCCCCCCCCCCCCCC(=O)O)C(=O)O)NC(=O)[C@H](CCCCN)NC(=O)[C@H](CC(=O)O)NC(=O)[C@H](CC(C)C)NC(=O)[C@](C)(CC(C)C)NC(=O)[C@@H](NC(=O)[C@H](CO)NC(=O)[C@H](Cc1ccc(O)cc1)NC(=O)[C@H](CC(=O)O)NC(=O)[C@H](CO)NC(=O)[C@@H](NC(=O)[C@](C)(Cc1ccccc1)NC(=O)[C@@H](NC(=O)CNC(=O)[C@H](CCC(=O)O)NC(=O)C(C)(C)NC(=O)[C@@H](N)Cc1ccc(O)cc1)[C@@H](C)O)[C@@H](C)O)[C@@H](C)CC)[C@@H](C)CC)C(=O)N[C@@H](CCC(=O)O)C(=O)NCC(=O)NCC(N)=O` [Example 99] (H-Y[Aib]EGT[αMeF]TSDYSI[αMeL]LDKK([AEEA-AEEA-γGlu-C20 diacid])AQ[Aib]AFIEYLIEGG-NH2), the Ki is 23.6 nM in test [1], 0.027 nM in test [2] and 1.15 nM in test [5]. Also, the EC50 amounted to 0.0986 nM in test [3] and 0.0643 nM in test [4].
In the case of `CC[C@H](C)[C@H](NC(=O)[C@H](CC(C)C)NC(=O)[C@H](Cc1ccc(O)cc1)NC(=O)[C@@H](CCC(=O)O)NC(=O)[C@@H](NC(=O)[C@H](Cc1ccccc1)NC(=O)[C@H](CCC(=O)O)NC(=O)C(C)(C)NC(=O)[C@H](CCC(N)=O)NC(=O)[C@H](C)NC(=O)[C@H](CCCCNC(=O)COCCOCCNC(=O)COCCOCCNC(=O)CC[C@H](NC(=O)CCCCCCCCCCCCCCCCCCC(=O)O)C(=O)O)NC(=O)[C@H](CCCCN)NC(=O)[C@H](CC(=O)O)NC(=O)[C@H](CC(C)C)NC(=O)[C@](C)(CC(C)C)NC(=O)[C@@H](NC(=O)[C@H](CO)NC(=O)[C@H](Cc1ccc(O)cc1)NC(=O)[C@H](CC(=O)O)NC(=O)[C@H](CO)NC(=O)[C@@H](NC(=O)[C@](C)(Cc1ccccc1)NC(=O)[C@@H](NC(=O)CNC(=O)[C@H](CCC(=O)O)NC(=O)C(C)(C)NC(=O)[C@@H](N)Cc1ccc(O)cc1)[C@@H](C)O)[C@@H](C)O)[C@@H](C)CC)[C@@H](C)CC)C(=O)N[C@@H](CCC(=O)O)C(=O)NCC(=O)NCC(=O)N1CCC[C@H]1C(=O)N[C@@H](CO)C(=O)N[C@@H](CO)C(=O)NCC(N)=O` [Example 228] (H-Y[Aib]EGT[αMeF]TSDYSI[αMeL]LDKK([AEEA-AEEA-γGlu-C20 diacid])AQ[Aib]EFI[dE]YLIEGGPSSG-NH2), the Ki is 182 nM in test [1], 0.028 nM in test [2] and 2.43 nM in test [5]. In addition, the EC50 in test [3] was determined as 0.0282 nM; in test [4] it was 0.0503 nM.
Turning to `CC[C@H](C)[C@H](NC(=O)[C@H](CC(C)C)NC(=O)[C@H](Cc1ccc(O)cc1)NC(=O)[C@H](CCC(=O)O)NC(=O)[C@@H](NC(=O)[C@H](Cc1ccccc1)NC(=O)[C@H](C)NC(=O)C(C)(C)NC(=O)[C@H](CCC(N)=O)NC(=O)[C@H](C)NC(=O)[C@H](CCCCNC(=O)COCCOCCNC(=O)COCCOCCNC(=O)CC[C@H](NC(=O)CCCCCCCCCCCCCCCCCCC(=O)O)C(=O)O)NC(=O)[C@H](CCCCN)NC(=O)[C@H](CC(=O)O)NC(=O)[C@H](CC(C)C)NC(=O)[C@H](CC(C)C)NC(=O)[C@@H](NC(=O)[C@H](CO)NC(=O)[C@H](Cc1ccc(O)cc1)NC(=O)[C@H](CC(=O)O)NC(=O)[C@H](CO)NC(=O)[C@@H](NC(=O)[C@H](Cc1ccccc1)NC(=O)[C@@H](NC(=O)CNC(=O)[C@H](CC(N)=O)NC(=O)C(C)(C)NC(=O)[C@@H](N)Cc1ccc(O)cc1)[C@@H](C)O)[C@@H](C)O)[C@@H](C)CC)[C@@H](C)CC)C(=O)N[C@@H](CCC(=O)O)C(=O)NCC(=O)NCC(=O)N1CCC[C@H]1C(=O)N[C@@H](CO)C(=O)N[C@@H](CO)C(=O)NCC(=O)N[C@@H](C)C(=O)N1CCC[C@H]1C(=O)N1CCC[C@H]1C(=O)N1CCC[C@H]1C(=O)N[C@@H](CO)C(N)=O` [Example 90] (H-Y[Aib]NGTFTSDYSILLDKK([AEEA-AEEA-γGlu-C20 diacid])AQ[Aib]AFIEYLIEGGPSSGAPPPS-NH2; N-terminus assumed), the Ki in test [1] was found to be 245 nM; in test [2], 0.0472 nM; in test [5], 4.76 nM. Also, the EC50 stood at 0.532 nM in test [3] and 0.0361 nM in test [4].
For `CC[C@H](C)[C@H](NC(=O)[C@H](CC(C)C)NC(=O)[C@H](Cc1ccc(O)cc1)NC(=O)[C@H](CCC(=O)O)NC(=O)[C@@H](NC(=O)[C@H](Cc1ccccc1)NC(=O)[C@H](C)NC(=O)[C@H](Cc1c[nH]cn1)NC(=O)[C@H](CCC(N)=O)NC(=O)[C@H](C)NC(=O)[C@H](CCCCNC(=O)COCCOCCNC(=O)COCCOCCNC(=O)CC[C@H](NC(=O)CCCCCCCCCCCCCCCCCCC(=O)O)C(=O)O)NC(=O)[C@H](CCCCN)NC(=O)[C@H](CC(=O)O)NC(=O)[C@H](CC(C)C)NC(=O)[C@H](CC(C)C)NC(=O)[C@@H](NC(=O)[C@H](CO)NC(=O)[C@H](Cc1ccc(O)cc1)NC(=O)[C@H](CC(=O)O)NC(=O)[C@H](CO)NC(=O)[C@@H](NC(=O)[C@H](Cc1ccccc1)NC(=O)[C@@H](NC(=O)CNC(=O)[C@H](CCC(=O)O)NC(=O)C(C)(C)NC(=O)[C@@H](N)Cc1ccc(O)cc1)[C@@H](C)O)[C@@H](C)O)[C@@H](C)CC)[C@@H](C)CC)C(=O)N[C@@H](CCC(=O)O)C(=O)NCC(=O)NCC(=O)N1CCC[C@H]1C(=O)N[C@@H](CO)C(=O)N[C@@H](CO)C(=O)NCC(=O)N[C@@H](C)C(=O)N1CCC[C@H]1C(=O)N1CCC[C@H]1C(=O)N1CCC[C@H]1C(=O)N[C@@H](CO)C(N)=O` [Example 255] (H-Y[Aib]EGTFTSDYSILLDKK([AEEA-AEEA-γGlu-C20 diacid])AQHAFIEYLIEGGPSSGAPPPS-NH2; N-terminus assumed), the Ki is 257 nM in test [1], 0.0772 nM in test [2] and 2.58 nM in test [5]. Further, the EC50 was 0.0407 nM in test [3] and 0.102 nM in test [4].
Turning to `CC[C@H](C)[C@H](NC(=O)[C@H](CC(C)C)NC(=O)[C@H](Cc1ccc(O)cc1)NC(=O)[C@H](CCC(=O)O)NC(=O)[C@@H](NC(=O)[C@H](Cc1ccccc1)NC(=O)[C@H](C)NC(=O)C(C)(C)NC(=O)[C@H](CCC(N)=O)NC(=O)[C@H](C)NC(=O)[C@H](CCCCNC(=O)COCCOCCNC(=O)COCCOCCNC(=O)CC[C@H](NC(=O)CCCCCCCCCCCCCCCCCCC(=O)O)C(=O)O)NC(=O)[C@H](CCCCN)NC(=O)[C@H](CC(=O)O)NC(=O)[C@H](CC(C)C)NC(=O)[C@H](CC(C)C)NC(=O)[C@@H](NC(=O)[C@H](CO)NC(=O)[C@H](Cc1ccc(O)cc1)NC(=O)[C@H](CC(=O)O)NC(=O)[C@H](CO)NC(=O)[C@@H](NC(=O)[C@H](Cc1ccccc1)NC(=O)[C@@H](NC(=O)CNC(=O)[C@H](CCC(=O)O)NC(=O)C(C)(C)NC(=O)[C@@H](N)Cc1ccc(O)cc1)[C@@H](C)O)[C@@H](C)O)[C@@H](C)CC)[C@@H](C)CC)C(=O)N[C@@H](CCC(=O)O)C(=O)NCC(=O)NCC(N)=O` [Example 51] (H-Y[Aib]EGTFTSDYSILLDKK([AEEA-AEEA-γGlu-C20 diacid])AQ[Aib]AFIEYLIEGG-NH2), the Ki in test [1] amounted to 195 nM; in test [2], 0.062 nM; in test [5], 5.62 nM. In addition, the EC50 in test [3] stood at 0.153 nM; in test [4] it was 0.096 nM.

What is called Ki is the dissociation constant of the complex between target and ligand, obtained from inhibition or displacement. The term EC50 denotes the concentration that produces a half-maximal response.
